The target of the assay is T1, human D3 receptor (Homo sapiens, UniProt P35462).
T1 construct: host or cells: CCL 1.3 mouse fibroblasts
In words: D3 receptor binding assay (125I-iodosulpiride displacement). Particulars: for Selectivity Ki D2/Ki D3: ratio of Ki D2 (3H-spiperone) to Ki D3 (125I-sulpiride). Here is the method: Cloned human D3 receptor-expressing CCL 1.3 mouse fibroblasts obtained from Res. Biochemicals Internat. One Strathmore Rd., Natick, Mass.
After 48 h, the cells were washed with PBS and incubated with 0.05% trypsin-containing PBS for 5 min. Neutralization with medium was then carried out, and the cells were collected by centrifugation at 300 xg. To lyze the cells, the pellet was briefly washed with lysis buffer (5 mM tris-HCl, pH 7.4, with 10% glycerol) and then incubated in a concentration of 10^7 cells/ml of lysis buffer at 4° C. for 30 min. The cells were centrifuged at 200 xg for 10 min and the pellet was stored in liquid nitrogen.
The non-specific binding was determined using 10^−6 M spiperone.
After 60 min, the free and the bound radioligand was separated by filtration through GF/B glass fiber filters (Whatman, England) on a Skatron cell collector (Skatron, Lier, Norway), and the filters were washed with ice-cold tris-HCl buffer, pH 7.4. The radioactivity collected on the filters was quantified using a Packard 2200 CA liquid scintillation counter.
The Ki values were determined by non-linear regression analysis using the LIGAND program.

Setting [1] is: cloned human D3 receptor, CCL 1.3 mouse fibroblast membranes, 0.1 nM 125iodosulpiride, read-out: Receptor binding D3 125I-sulpiride Ki.

The structures appear in SMILES notation. Read-outs that look alike come from different tables or passages of the source.

T1 sequence (P35462 whole entry): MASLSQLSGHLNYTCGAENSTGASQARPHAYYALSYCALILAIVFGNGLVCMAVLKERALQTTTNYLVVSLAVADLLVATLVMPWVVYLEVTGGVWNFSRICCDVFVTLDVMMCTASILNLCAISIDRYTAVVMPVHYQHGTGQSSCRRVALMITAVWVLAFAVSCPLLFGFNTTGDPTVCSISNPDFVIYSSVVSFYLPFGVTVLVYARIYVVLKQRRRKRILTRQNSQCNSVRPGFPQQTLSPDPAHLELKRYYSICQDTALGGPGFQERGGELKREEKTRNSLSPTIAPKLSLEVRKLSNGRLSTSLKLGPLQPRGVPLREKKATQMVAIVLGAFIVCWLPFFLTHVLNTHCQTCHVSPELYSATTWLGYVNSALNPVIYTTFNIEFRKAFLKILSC

Take `Oc1ccnc(SC/C=C/CN2CCN(c3cccc(C(F)(F)F)c3)CC2)n1` [Example 13]: the “Selectivity Ki D2/Ki D3” value is 61. The inhibition constant Ki (in general, the dissociation constant of the complex between target and ligand, obtained from inhibition or displacement) under setting [1] worked out at 2.3 nM.

As for `CC(C)c1cccc(N2CCN(CCCSc3nccc(O)n3)CC2)c1` [Example 17], the “Selectivity Ki D2/Ki D3” value is 71. Moreover, under setting [1], the inhibition constant (Ki) was found to be 2.8 nM.

In the case of `Oc1ccnc(SCCCN2CC=C(c3cccc(C(F)(F)F)c3)CC2)n1` [Example 19], the Ki is 3 nM and the “Selectivity Ki D2/Ki D3” value stood at 58.

On to `Oc1ccnc(SCCCN2CCN(c3cccc(C(F)(F)F)c3)CC2)n1` [Example 12], for which the Ki was 4.2 nM and the “Selectivity Ki D2/Ki D3” value is given as 85.

The values above are taken from patent US6342604B1, “Substitute pyrimidine compounds and the use thereof” (BASF Aktiengesellschaft, priority 1994, dated 2002).
